Laboratory results: US6114334A, “Piperazine derivatives as therapeutic agents” (Knoll Aktiengesellschaft, priority 1995, dated 2000)

Tests used:
[1] = target: T1, α2D-adrenoceptors (Rattus norvegicus, UniProt P22909); experiment: inhibition of tritiated idazoxan binding to α2D-adrenoceptors in vitro; design: species or system rat (male Charles River CD, frontal cortical tissue); settings: rat frontal cortex, [3H]idazoxan 1 nM, 0° C., 75 min
T1 sequence (P22909 1-465): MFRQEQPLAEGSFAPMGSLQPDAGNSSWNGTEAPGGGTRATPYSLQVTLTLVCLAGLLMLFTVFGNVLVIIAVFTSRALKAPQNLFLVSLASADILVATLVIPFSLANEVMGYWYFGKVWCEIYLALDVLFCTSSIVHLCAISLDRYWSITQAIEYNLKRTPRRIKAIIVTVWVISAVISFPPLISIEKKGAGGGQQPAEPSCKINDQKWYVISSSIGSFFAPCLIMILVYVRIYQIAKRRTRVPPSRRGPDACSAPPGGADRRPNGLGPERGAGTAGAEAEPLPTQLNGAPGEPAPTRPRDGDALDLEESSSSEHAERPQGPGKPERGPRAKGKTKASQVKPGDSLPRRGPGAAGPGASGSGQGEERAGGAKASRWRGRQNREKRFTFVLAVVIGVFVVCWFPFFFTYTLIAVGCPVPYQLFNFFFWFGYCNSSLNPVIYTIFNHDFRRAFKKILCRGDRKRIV

[2] = target: T2, 5-HT1A receptors (Rattus norvegicus, UniProt P19327); experiment: inhibition of [3H]8-OH-DPAT binding to 5-HT1A receptors in vitro; design: species or system rat (male Sprague-Dawley, hippocampal tissue); settings: rat hippocampus, [3H]8-OH-DPAT 2 nM, 25° C., 30 min
T2 sequence (P19327 1-422): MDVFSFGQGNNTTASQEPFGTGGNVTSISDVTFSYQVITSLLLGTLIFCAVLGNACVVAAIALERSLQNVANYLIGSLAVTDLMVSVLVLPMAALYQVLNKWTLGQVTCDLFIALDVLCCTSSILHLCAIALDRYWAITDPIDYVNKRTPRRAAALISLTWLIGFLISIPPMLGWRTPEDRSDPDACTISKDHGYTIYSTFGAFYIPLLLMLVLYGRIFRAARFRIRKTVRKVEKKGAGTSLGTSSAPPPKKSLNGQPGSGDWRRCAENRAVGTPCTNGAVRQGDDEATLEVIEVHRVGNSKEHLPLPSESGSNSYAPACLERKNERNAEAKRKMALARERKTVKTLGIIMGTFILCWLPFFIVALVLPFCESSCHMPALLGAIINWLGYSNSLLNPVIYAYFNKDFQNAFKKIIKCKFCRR
Method: Hippocampal tissue from the brains of male Sprague-Dawley rats (Charles River; weight range 150-250 g) was homogenised in ice-cold 50 mM Tris-HCl buffer (pH 7.7 when measured at 25° C., 1:40 w/v) and centrifuged at 30,000 g at 4° C. for 10 minutes. The pellet was rehomogenised in the same buffer, incubated at 37° C. for 10 minutes and centrifuged at 30,000 g at 4° C. for 10 minutes. The final pellet was resuspended in 50 mM Tris-HCl buffer (pH 7.7) containing 4 mM CaCl2. 0.1% L-ascorbic acid and 10 μM pargyline hydrochloride (equivalent to 6.25 mg wet weight of tissue/ml) and used immediately in the binding assay. Aliquots (400 μl; equivalent to 2.5 mg wet weight of tissue/tube) of this suspension were added to tubes containing the ligand (50 μl; 2 nM) and distilled water (50 μl; total binding) or 5-HT (50 μl; 10 μM; non-specific binding) or test compound (50 μl; at a single concentration of 10^-6 M or at 10 concentrations ranging from 10^-11 -10^-3 M). The ligand was [^3 H]8-hydroxy-2-(dipropylamino)tetralin ([^3 H]8-OH-DPAT) and the mixture was incubated at 25° C. for 30 minutes before the incubation was terminated by rapid filtration.
The filters were washed with ice-cold Tris-HCl buffer and dried. The filters were punched out into vials, scintillation fluid added and radioactivity determined by liquid scintillation counting. The percentage displacement of specific binding of the tritiated ligand was calculated for the single concentration (10^-6 M) of test compound. Displacement curves were then produced for those compounds which displaced ≥50% of specific binding of the tritiated ligand at 10^-6 M using a range of concentrations of the compound. The concentration which gave 50% inhibition of specific binding (IC50) was obtained from the curve. The inhibition coefficient Ki was then calculated using the formula [formula] in which [ligand] is the concentration of the tritiated ligand used and KD is the equilibrium dissociation constant for the ligand.

[3] = target: T3, α2A-adrenoceptors (Homo sapiens, UniProt P08913); experiment: inhibition of tritiated RX 821002 binding to α2A-adrenoceptors in vitro; design: species or system human (cerebral cortex post-mortem); settings: 10^-6 M, human cerebral cortex, [3H]RX 821002; read-out: % displacement at 10^-6 M, α2A
T3 construct: Human cerebral cortex obtained at post-mortem; from tissue; host or cells: human cerebral cortex, post-mortem
T3 sequence (P08913 1-465): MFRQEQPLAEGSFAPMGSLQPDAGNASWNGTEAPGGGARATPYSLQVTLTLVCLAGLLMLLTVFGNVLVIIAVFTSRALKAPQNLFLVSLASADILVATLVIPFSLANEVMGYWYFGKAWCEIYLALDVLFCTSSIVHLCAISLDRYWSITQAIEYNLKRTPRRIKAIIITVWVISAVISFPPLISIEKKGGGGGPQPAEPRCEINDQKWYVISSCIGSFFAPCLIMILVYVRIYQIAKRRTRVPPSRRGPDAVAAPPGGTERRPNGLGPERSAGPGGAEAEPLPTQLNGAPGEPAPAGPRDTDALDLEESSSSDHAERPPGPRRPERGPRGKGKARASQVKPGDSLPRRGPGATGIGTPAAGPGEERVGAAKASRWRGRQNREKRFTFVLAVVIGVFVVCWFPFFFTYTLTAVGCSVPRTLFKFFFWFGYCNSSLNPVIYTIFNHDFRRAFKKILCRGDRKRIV
Summary of the method: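 Post-mortem human cerebral cortex membranes (10 mg wet tissue/tube; 50 mM Tris-HCl pH 7.5, ascorbate, EDTA) incubated 75 min at 0 °C with [3H]RX 821002 (0.2 nM as added) and compound; filtration, scintillation counting. Compounds displacing ≥50% at 10^-6 M tested at 10^-11–10^-3 M; IC50 converted to Ki.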

[4] = target: D2 dopamine receptors (Rattus norvegicus, UniProt P61169); experiment: inhibition of tritiated (S)-sulpiride binding to D2 dopamine receptors in vitro; design: species or system rat (male Charles River CD, striatal tissue); settings: rat striatum, tritiated (S)-sulpiride 1 nM, 4° C., 40 min
[5] = target: α1-adrenoceptors; experiment: inhibition of 7-methoxy-[3H]prazosin binding to α1-adrenoceptors in vitro; design: species or system rat (male Charles River CD, whole cortical tissue); settings: rat whole cortex, 7-methoxy-[3H]prazosin 0.1 nM, 30° C., 30 min
Summary of the method: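 Male CD rat cortical membranes in 50 mM Tris-HCl pH 7.6 were incubated 30 min at 30 °C with 7-methoxy-[3H]prazosin (0.1 nM as added), with 5 μM phentolamine (as added) defining non-specific binding, then filtered and counted. Compounds were tested at 10^-6 M for % displacement or at 10^-11–10^-3 M for IC50, and Ki was derived from IC50, ligand concentration and KD.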

Chain of D2 dopamine receptors (P61169 whole entry): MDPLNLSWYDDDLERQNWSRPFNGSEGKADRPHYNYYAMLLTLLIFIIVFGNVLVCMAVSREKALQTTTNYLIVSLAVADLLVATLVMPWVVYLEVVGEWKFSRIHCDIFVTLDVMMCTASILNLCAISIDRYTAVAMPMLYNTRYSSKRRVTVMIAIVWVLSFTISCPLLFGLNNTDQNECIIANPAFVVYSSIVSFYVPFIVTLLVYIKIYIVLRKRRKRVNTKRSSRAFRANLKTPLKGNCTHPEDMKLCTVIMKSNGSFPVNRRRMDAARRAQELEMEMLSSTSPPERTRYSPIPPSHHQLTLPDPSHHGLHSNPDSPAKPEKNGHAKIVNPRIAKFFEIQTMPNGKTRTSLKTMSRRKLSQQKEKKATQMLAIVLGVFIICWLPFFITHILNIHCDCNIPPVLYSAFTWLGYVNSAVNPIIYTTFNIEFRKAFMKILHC

## Cn1c(N)c(CN2CCN(c3cccc4ccccc34)CC2)c(=O)n1-c1ccccc1 [Example 4, 3-Amino-2-methyl-4-[4-(1-naphthyl)piperazin-1-ylmethyl]-1-phenyl-3-pyrazolin-5-one]
[1]
  Ki: > 500 nM
[2]
  Ki: 39 nM
[3]
  inhibition at 1 µM: 82%
[4]
  Ki: 112 nM
[5]
  Ki: 186 nM
